# In patent US20030175438A1, “Treatments of solid substrates to enhance durability of treatments placed thereon” (priority 2002, published 2003):
# Assay: Bromphenol Blue (BPB) Extraction Method, spectrophotometric at 595 nm (modified CTM 0824), on treated fabric
# Format: physicochemical
# Conditions: for BOILED IN WATER % EXTRACTION / CHANGE / NO BOIL % EXTRACTION: Table XII; for % BPB EXTRACTION CHANGE / % EXTRACTION CHANGE / % BPB Extraction (change on boiling) / EXTRACTION CHANGE: boiled vs not boiled; for Boiling Durability - % BPB Extraction: Boil 30 min., Table XIV; for Strike Rate - % BPB Extraction: No Boil, Table XIII; for Boiled in H20 % Extraction / Change % Extraction / No Boil % Extraction: Table XI
smiles,measurement,setting,value
"CCCCCCCCCCCCCCCCCC[N+](C)(C)CCC[Si](OC)(OC)OC.[Cl-] [AMT, N, N-dimethyl-N-Octadecyl-3-(trimethoxysilyl)propanaminium chloride]",BOILED IN WATER % EXTRACTION,130° C./5 minutes,27%
same,CHANGE,130° C./5 minutes,−34%
same,NO BOIL % EXTRACTION,130° C./5 minutes,61%
same,CHANGE,130° C./30 minutes,−41%
same,NO BOIL % EXTRACTION,130° C./30 minutes,68%
same,% Extraction @ 595 nm,"ACRYLIC MODACRYLIC, boiled 30 minutes, Table IV",45%
same,% BPB EXTRACTION CHANGE,"ACRYLIC MODACRYLIC, Table IV",−46%
same,% Extraction @ 595 nm,"ACRYLIC MODACRYLIC, not boiled, Table IV",91%
same,Boiling Durability % BPB EXTRACTION @ 595 nm,"ACRYLIC, boiled 30 minutes, Table XVII",14%
same,% EXTRACTION CHANGE,"ACRYLIC, Table XVII",−42%
same,Boiling Durability % BPB EXTRACTION @ 595 nm,"ACRYLIC, not boiled, Table XVII",56%
same,BOILED IN WATER % EXTRACTION,AIR DRIED,37%
same,CHANGE,AIR DRIED,−38%
same,NO BOIL % EXTRACTION,AIR DRIED,75%
same,% BPB EXTRACTION @ 595 nm,"COTTON, boiled 30 minutes, Table III",95%
same,% Extraction @ 595 nm,"COTTON, boiled 30 minutes, Table IV",94%
same,% Extraction @ 595 nm,"COTTON, boiled 30 minutes, Table VI",94%
same,% BPB EXTRACTION @ 595 nm,"COTTON, boiled 30 minutes, Table XV",92%
same,% EXTRACTION CHANGE,"COTTON, Table III",−1%
same,% EXTRACTION CHANGE,"COTTON, Table IX",−1%
same,% EXTRACTION CHANGE,"COTTON, Table VII",+2%
same,% EXTRACTION CHANGE,"COTTON, Table XV",−1%
same,% BPB EXTRACTION @ 595 nm,"COTTON, boiled, Table IX",92%
same,% BPB EXTRACTION @ 595 nm,"COTTON, boiled, Table VII",97%
same,% BPB EXTRACTION @ 595 nm,"COTTON, not boiled, Table III",96%
same,% Extraction @ 595 nm,"COTTON, not boiled, Table IV",95%
same,% BPB EXTRACTION @ 595 nm,"COTTON, not boiled, Table IX",93%
same,% Extraction @ 595 nm,"COTTON, not boiled, Table VI",94%
same,% BPB EXTRACTION @ 595 nm,"COTTON, not boiled, Table VII",95%
same,% BPB EXTRACTION @ 595 nm,"COTTON, not boiled, oven dried 130° C. 5 minutes, Table XV",93%
same,% Extraction @ 595 nm,"NYLON, boiled 30 minutes, Table I",45%
same,% BPB EXTRACTION @ 595 nm,"NYLON, boiled 30 minutes, Table III",20%
same,% Extraction @ 595 nm,"NYLON, boiled 30 minutes, Table IV",45%
same,% BPB EXTRACTION @ 595 nm,"NYLON, boiled 30 minutes, Table XV",30%
same,Boiling Durability % BPB EXTRACTION @ 595 nm,"NYLON, boiled 30 minutes, Table XVII",26%
same,% BPB Extraction (change on boiling),"NYLON, Table I",−37%
same,% EXTRACTION CHANGE,"NYLON, Table III",−57%
same,% BPB EXTRACTION CHANGE,"NYLON, Table IV",−25%
same,% EXTRACTION CHANGE,"NYLON, Table IX",−66%
same,EXTRACTION CHANGE,"NYLON, Table VI",−71%
same,% EXTRACTION CHANGE,"NYLON, Table VII",−69%
same,% EXTRACTION CHANGE,"NYLON, Table XV",−59%
same,% EXTRACTION CHANGE,"NYLON, Table XVII",−54%
same,% BPB EXTRACTION @ 595 nm,"NYLON, boiled, Table VII",18%
same,% Extraction @ 595 nm,"NYLON, not boiled, Table I",82%
same,% BPB EXTRACTION @ 595 nm,"NYLON, not boiled, Table III",77%
same,% Extraction @ 595 nm,"NYLON, not boiled, Table IV",70%
same,% Extraction @ 595 nm,"NYLON, not boiled, Table VI",82%
same,% BPB EXTRACTION @ 595 nm,"NYLON, not boiled, Table VII",87%
same,% BPB EXTRACTION @ 595 nm,"NYLON, not boiled, oven dried 130° C. 5 minutes, Table XV",89%
same,Boiling Durability - % BPB Extraction,Nylon,14.42%
same,Boiling Durability - % BPB Extraction,"Nylon, treatment at pH = 11",17.83%
same,Boiling Durability - % BPB Extraction,PET Staple,6.82%
same,Boiling Durability - % BPB Extraction,"PET Staple, treatment at pH = 11",37.6%
same,Strike Rate - % BPB Extraction,"PET Staple, 0.25 grams of fabric",17.36%
same,Boiling Durability - % BPB Extraction,"PET, treatment at pH = 11",14.38%
same,Strike Rate - % BPB Extraction,"PET, 0.25 grams of fabric",4.98%
same,% Extraction @ 595 nm,"PET, boiled 30 minutes, Table I",18%
same,% BPB EXTRACTION @ 595 nm,"PET, boiled 30 minutes, Table III",20%
same,% Extraction @ 595 nm,"PET, boiled 30 minutes, Table VI",26%
same,Boiling Durability % BPB EXTRACTION @ 595 nm,"PET, boiled 30 minutes, Table XVII",19%
same,% BPB Extraction (change on boiling),"PET, Table I",−71%
same,% EXTRACTION CHANGE,"PET, Table III",−74%
same,% EXTRACTION CHANGE,"PET, Table IX",−73%
same,EXTRACTION CHANGE,"PET, Table VI",−63%
same,% EXTRACTION CHANGE,"PET, Table VII",−72%
same,% EXTRACTION CHANGE,"PET, Table XV",−50%
same,% BPB EXTRACTION @ 595 nm,"PET, boiled, Table IX",14%
same,% BPB EXTRACTION @ 595 nm,"PET, boiled, Table VII",91%
same,% Extraction @ 595 nm,"PET, not boiled, Table I",89%
same,% BPB EXTRACTION @ 595 nm,"PET, not boiled, Table IX",87%
same,% Extraction @ 595 nm,"PET, not boiled, Table VI",89%
same,% BPB EXTRACTION @ 595 nm,"PET, not boiled, Table VII",93%
same,Boiling Durability % BPB EXTRACTION @ 595 nm,"PET, not boiled, Table XVII",83%
same,% BPB EXTRACTION @ 595 nm,"PET, not boiled, oven dried 130° C. 5 minutes, Table XV",86%
same,% BPB EXTRACTION @ 595 nm,"PPNW, boiled 30 minutes, Table XV",45%
same,Boiling Durability % BPB EXTRACTION @ 595 nm,"PPNW, boiled 30 minutes, Table XVII",37%
same,% EXTRACTION CHANGE,"PPNW, Table XV",−40%
same,% EXTRACTION CHANGE,"PPNW, Table XVII",−40%
same,Boiling Durability % BPB EXTRACTION @ 595 nm,"PPNW, not boiled, Table XVII",77%
same,% BPB EXTRACTION @ 595 nm,"PPNW, not boiled, oven dried 130° C. 5 minutes, Table XV",85%
same,% Extraction @ 595 nm,"RAYON, boiled 30 minutes, Table I",35%
same,% BPB EXTRACTION @ 595 nm,"RAYON, boiled 30 minutes, Table III",50%
same,% Extraction @ 595 nm,"RAYON, boiled 30 minutes, Table VI",44%
same,% BPB Extraction (change on boiling),"RAYON, Table I",−55%
same,% EXTRACTION CHANGE,"RAYON, Table III",−44%
same,% EXTRACTION CHANGE,"RAYON, Table IX",−40%
same,EXTRACTION CHANGE,"RAYON, Table VI",−50%
same,% EXTRACTION CHANGE,"RAYON, Table VII",−50%
same,% BPB EXTRACTION @ 595 nm,"RAYON, boiled, Table IX",52%
same,% BPB EXTRACTION @ 595 nm,"RAYON, boiled, Table VII",42%
same,% Extraction @ 595 nm,"RAYON, not boiled, Table I",90%
same,% BPB EXTRACTION @ 595 nm,"RAYON, not boiled, Table III",94%
same,% BPB EXTRACTION @ 595 nm,"RAYON, not boiled, Table IX",92%
same,% Extraction @ 595 nm,"RAYON, not boiled, Table VI",94%
same,% BPB EXTRACTION @ 595 nm,"RAYON, not boiled, Table VII",92%
same,Boiling Durability - % BPB Extraction,Rayon,9.88%
same,Boiling Durability - % BPB Extraction,"Rayon, treatment at pH = 11",21.36%
same,Strike Rate - % BPB Extraction,"Rayon, treatment at pH = 11",19.5%
same,Boiled in H20 % Extraction,cure: 130° C. for 5 Min,21%
same,Change % Extraction,cure: 130° C. for 5 Min,−36%
same,No Boil % Extraction,cure: 130° C. for 5 Min,57%
same,Boiled in H20 % Extraction,cure: Air Dried,21%
same,Change % Extraction,cure: Air Dried,−46%
same,No Boil % Extraction,cure: Air Dried,67%
